Laboratory results as given in patent US20260049101A1, “TOPICAL TREATMENT OF SKIN CANCER USING OLIGOPEPTIDES” (BACOBA AG, priority 2022, published 2026).
Numbered stars: 1 amine (or outer) side, 2 acyl side, 3 side chain; on linkers, the order of the positions; unused ones are H or OH. Square brackets hold non-standard residues; d marks the D form. Peptide text beside a SMILES is read from it. * marks the point of attachment. Abu(4,4,4-F3) = N[C@@H](CC(F)(F)F)C(=O)O; X4 = C[C@](N[*:1])(C(=O)[*:2])C(F)(F)F; NH(1-CH2NMe2-cBu) = CN(C)CC1(N*)CCC1; β3hAib = CC(C)(CC(=O)[*:2])N[*:1]; Benzoyl(4-F) = O=C(c1ccc(F)cc1)*; hCha = N[C@@H](CCC1CCCCC1)C(=O)O; β3hL = CC(C)C[C@H](N)CC(=O)O; Aib = CC(C)(N)C(=O)O; βAla = NCCC(=O)O

Each compound was assayed on cutaneous squamous cell carcinoma cell line SCC12 (assay: In vitro anti-proliferative assay (resazurin) in SCC12). Conditions: SCC12, 72 hours.
Format: cell-based
Description: Methodology. The cutaneous squamous cell carcinoma cell culture SCC12 was cultivated in keratinocyte-SFM media (KSFM, Cat #17005042, Gibco) supplemented with human recombinant epidermal growth factor 1-53 (EGF 1-53) and bovine pituitary extract (BFE).
Vehicle treated wells were set to 100% viability.

Going from CC(C)C[C@@H](CC(=O)NC(C)(C)C(=O)N[C@@H](CC(C)C)C(=O)N[C@@H](CC(C)C)C(=O)NC(C)(C)C(=O)NC(C)(C)C(=O)NCCC(=O)NC1(CN(C)C)CCC1)NC(=O)[C@H](CCC1CCCCC1)NC(=O)[C@@H]1CCCN1C(=O)c1ccc(F)cc1 [Compound 21314, (3S)-3-[(2S)-4-cyclohexyl-2-{[(2S)-1-(4-fluorobenzoyl)pyrrolidin-2-yl]formamido}butan-amido]-N-(1-{[(1S)-1-{[(1S)-1-({1-[(1-{[2-({1-[(dimethylamino)methyl]cyclobutyl}carba-moyl)ethyl]carbamoyl}-1-methylethyl)carbamoyl]-1-methylethyl}carbamoyl)-3-methylbutyl]carbamoyl}-3-methylbutyl]carbamoyl}-1-methylethyl)-5-methylhexanamide] ({Benzoyl(4-F)}-P[hCha][β3hL][Aib]LL[Aib][Aib][βAla]-{NH(1-CH2NMe2-cBu)}) to CC(C)C[C@H](NC(=O)[C@H](CCC1CCCCC1)NC(=O)[C@@H]1CCCN1C(=O)c1ccc(F)cc1)C(=O)NC(C)(C)C(=O)N[C@@H](CC(C)C)C(=O)N[C@@H](CC(C)C)C(=O)NC(C)(C)C(=O)NC(C)(C)CC(=O)NCCC(=O)NC1(CN(C)C)CCC1 [Compound 21365, (2S)-2-[(2S)-4-cyclohexyl-2-{[(2S)-1-(4-fluorobenzoyl)pyrrolidin-2-yl]formamido}butan-amido]-N-(1-{[(1S)-1-{[(1S)-1-({1-[(1-{[2-({1-[(dimethylamino)methyl]cyclobutyl}carbamoyl)ethyl]carbamoyl}-2-methylpropan-2-yl)carbamoyl]-1-methylethyl}carbamoyl)-3-methylbutyl]carbamoyl}-3-methylbutyl]carbamoyl}-1-methylethyl)-4-methylpentanamide] ({Benzoyl(4-F)}-P[hCha]L[Aib]LL[Aib][β3hAib][βAla]-{NH(1-CH2NMe2-cBu)}), the IC50 rises from 324 nM to 511 nM (1.6-fold). The first is the more potent here.

Compared with CC(C)C[C@@H](CC(=O)NC(C)(C)C(=O)NC(C)(C)C(=O)NCCC(=O)NC1(CN(C)C)CCC1)NC(=O)C[C@H](CC(C)C)NC(=O)C(C)(C)NC(=O)C[C@H](CC(C)C)NC(=O)[C@H](CCC1CCCCC1)NC(=O)[C@@H]1CCCN1C(=O)c1ccc(F)cc1 [Compound 21315, (3S)-3-[(2S)-4-cyclohexyl-2-{[(2S)-1-(4-fluorobenzoyl)pyrrolidin-2-yl]formamido}butanamido]-N-(1-{[(2S)-1-{[(2S)-1-({1-[(1-{[2-({1-[(dimethylamino)methyl]cyclobutyl}carbamoyl)ethyl]carbamoyl}-1-methylethyl)carbamoyl]-1-methylethyl}carbamoyl)-4-methylpentan-2-yl]carbamoyl}-4-methylpentan-2-yl]carbamoyl}-1-methylethyl)-5-methylhexanamide] ({Benzoyl(4-F)}-P[hCha][β3hL][Aib][β3hL][β3hL][Aib][Aib][βAla]-{NH(1-CH2NMe2-cBu)}), CC(C)C[C@H](NC(=O)[C@H](CC(C)C)NC(=O)[C@](C)(NC(=O)[C@H](CC(C)C)NC(=O)[C@H](CCC1CCCCC1)NC(=O)[C@@H]1CCCN1C(=O)c1ccc(F)cc1)C(F)(F)F)C(=O)NC(C)(C)C(=O)NC(C)(C)C(=O)NCCC(=O)NC1(CN(C)C)CCC1 [Compound 21362, (2S)-2-[(2S)-4-cyclohexyl-2-{[(2S)-1-(4-fluorobenzoyl)pyrrolidin-2-yl]formamido}butanamido]-N-[(1S)-1-{[(1S)-1-{[(1S)-1-({1-[(1-{[2-({1-[(dimethylamino)methyl]cyclobutyl}carbamoyl)ethyl]carbamoyl}-1-methylethyl)carbamoyl]-1-methylethyl}carbamoyl)-3-methylbutyl]carbamoyl}-3-methylbutyl]carbamoyl}-2,2,2-trifluoro-1-methylethyl]-4-methylpentanamide] ({Benzoyl(4-F)}-P[hCha]L[X4]LL[Aib][Aib][βAla]-{NH(1-CH2NMe2-cBu)}) is 4.3-fold lower in IC50: 3100 nM for the first, 717 nM for the second.

Going from CC(C)C[C@H](NC(=O)[C@H](CCC1CCCCC1)NC(=O)[C@@H]1CCCN1C(=O)c1ccc(F)cc1)C(=O)NC(C)(C)C(=O)N[C@@H](CC(C)C)C(=O)N[C@@H](CC(C)C)C(=O)NC(C)(C)C(=O)N[C@@](C)(C(=O)NCCC(=O)NC1(CN(C)C)CCC1)C(F)(F)F [Compound 21359, (2S)-2-[(2S)-4-cyclohexyl-2-{[(2S)-1-(4-fluorobenzoyl)pyrrolidin-2-yl]formamido}butanamido]-N-(1-{[(1S)-1-{[(1S)-1-[(1-{[(1S)-1-{[2-({1-[(dimethylamino)methyl]cyclobutyl}carbamoyl)ethyl]carbamoyl}-2,2,2-trifluoro-1-methylethyl]carbamoyl}-1-methylethyl)carbamoyl]-3-methylbutyl]carbamoyl}-3-methylbutyl]carbamoyl}-1-methylethyl)-4-methylpentanamide] ({Benzoyl(4-F)}-P[hCha]L[Aib]LL[Aib][X4][βAla]-{NH(1-CH2NMe2-cBu)}) to CC(C)C[C@H](NC(=O)[C@H](CCC1CCCCC1)NC(=O)[C@@H]1CCCN1C(=O)c1ccc(F)cc1)C(=O)NC(C)(C)C(=O)N[C@@H](CC(C)C)C(=O)N[C@@H](CC(F)(F)F)C(=O)NC(C)(C)C(=O)NC(C)(C)C(=O)NCCC(=O)NC1(CN(C)C)CCC1 [Compound 21369, (2S)-2-[(2S)-4-cyclohexyl-2-{[(2S)-1-(4-fluorobenzoyl)-pyrrolidin-2-yl]formamido}butan-amido]-N-(1-{[(1S)-1-{[(1S)-1-({1-[(1-{[2-({1-[(dimethylamino)methyl]cyclobutyl}carba-moyl)ethyl]carbamoyl}-1-methylethyl)carbamoyl]-1-methylethyl}carbamoyl)-3,3,3-trifluoropropyl]carbamoyl}-3-methylbutyl]carbamoyl}-1-methylethyl)-4-methylpentanamide] ({Benzoyl(4-F)}-P[hCha]L[Aib]L[Abu(4,4,4-F3)][Aib][Aib][βAla]-{NH(1-CH2NMe2-cBu)}), the IC50 falls from 360 nM to 167 nM (2.2-fold). The second is the more potent here.

Compound CC(C)C[C@H](NC(=O)CC(C)(C)NC(=O)[C@H](CC(C)C)NC(=O)[C@H](CCC1CCCCC1)NC(=O)[C@@H]1CCCN1C(=O)c1ccc(F)cc1)C(=O)N[C@@H](CC(C)C)C(=O)NC(C)(C)CC(=O)NC(C)(C)CC(=O)NCCC(=O)NC1(CN(C)C)CCC1 [Compound 21368, (2S)-2-[(2S)-4-cyclohexyl-2-{[(2S)-1-(4-fluorobenzoyl)pyrrolidin-2-yl]formamido}butan-amido]-N-(1-{[(1S)-1-{[(1S)-1-({1-[(1-{[2-({1-[(dimethylamino)methyl]cyclobutyl}carba-moyl)ethyl]carbamoyl}-2-methylpropan-2-yl)carbamoyl]-2-methylpropan-2-yl}carbamoyl)-3-methylbutyl]carbamoyl}-3-methylbutyl]carbamoyl}-2-methylpropan-2-yl)-4-methylpentanamide] has an IC50 of over 10000 nM.
